Broadly, the ΔTm is the shift of the melting midpoint relative to a reference. Usually KD stands for the concentration at which binding is half-saturated. Higher therefore signals a looser complex.

Experiment [1] relates to shortened KRAS oligonucleotide (DNA, G4) AGGGCGGTGTGGGAATAGGGAA
Briefly: WaterLOGSY NMR. The conditions noted are these: 50 mM KCl, 25 mM Tris-d11 pH 6.6, 10% DMSO-d6, 293 K, 100 μM compound, 1 μM DNA.

Experiment [2] deals with KRAS G4 (DNA, G4) AGGGCGGTGTGGGAAGAGGGAAGAGGGGGAGGCAG
Briefly: CD thermal melt. The conditions noted are these: 30 mM KCl; 10 mM Tris pH 6.6, 1% DMSO; 10 μM DNA, 40 μM compound.

Experiment [3] relates to Alexafluor647-KRAS (DNA, G4) AGGGCGGTGTGGGAAGAGGGAAGAGGGGGAGGCAG
Briefly: small molecule microarray. As to conditions: 100 mM KCl; PBST, room temperature, 500 nM DNA; immobilised compound.

Experiment [4] relates to Alexafluor647-AKTIP (RNA, G4) GGGGUGGGGCGGGGCGGGG
The experiment in a line: small molecule microarray. As to conditions: 100 mM KCl; PBST, room temperature, 500 nM RNA; immobilised compound.

Experiment [5] deals with Alexafluor647-BCl2 (DNA, G4) AGGGGCGGGCGCGGGAGGAAGGGGGCGGGA
Briefly: small molecule microarray. The conditions noted are these: 100 mM KCl; PBST, room temperature, 500 nM DNA; immobilised compound.

Experiment [6] relates to Alexafluor647-MYC (DNA, G4) AGGGTGGGGAGGGTGGGG
Briefly: small molecule microarray. As to conditions: 100 mM KCl; PBST, room temperature, 500 nM DNA; immobilised compound.

The subject of experiment [7] is Alexafluor647-MYB (DNA, G4) GGAGGAGGAGGTCACGGAGGAGGAGGAGAAGGAGGAGGAGGA
The experiment in a line: small molecule microarray. As to conditions: 100 mM KCl; PBST, room temperature, 500 nM DNA; immobilised compound.

Experiment [8] deals with Alexafluor647-RB1 (DNA, G4) CGGGGGGTTTTGGGCGGC
The experiment in a line: small molecule microarray. The conditions noted are these: 100 mM KCl; PBST, room temperature, 500 nM DNA; immobilised compound.

Experiment [9] deals with Alexafluor647-VEGF (DNA, G4) CGGGGCGGGCCGGGGGCGGGGT
The experiment in a line: small molecule microarray. As to conditions: 100 mM KCl; PBST, room temperature, 500 nM DNA; immobilised compound.

In experiment [10] the test system is Alexafluor647-c-KIT (DNA, G4) AGGGAGGGCGCTGGGAGGAGGG
Briefly: small molecule microarray. The conditions noted are these: 100 mM KCl; PBST, room temperature, 500 nM DNA; immobilised compound.

In experiment [11] the test system is shortened KRAS oligonucleotide (DNA, G4) AGGGCGGTGTGGGAATAGGGAA
The experiment in a line: 1H NMR titration. As to conditions: 50 mM KCl, 100 μM DNA.

For experiment [12], the system named is 5'-biotin-TEG KRAS (DNA, G4) AGGGCGGTGTGGGAAGAGGGAAGAGGGGGAGGCAG
The experiment in a line: SPR, steady state. As to conditions: 30 mM KCl; 10 mM Tris pH 6.6, 3% DMSO, 0.01% Tween-20; apparent; text b35 prints 12.0 ± 0.5. (Surface plasmon resonance follows binding to a sensor surface in real time, without labels.)

For experiment [13], the system named is Alexafluor647-KRAS (DNA, G4) AGGGCGGTGTGGGAAGAGGGAAGAGGGGGAGGCAG
Briefly: fluorescence intensity titration. As to conditions: 50 mM KCl, 25 mM Tris pH 6.4, 2-3% DMSO, room temperature; for KDapp: apparent.

Experiment [14] deals with KRAS G4 (DNA, G4) AGGGCGGTGTGGGAAGAGGGAAGAGGGGGAGGCAG
The experiment in a line: 13C NMR. As to conditions: 50 mM KCl; 25 mM Tris-d11 pH 6.6, 10% DMSO-d6, 293 K.

The subject of experiment [15] is dsDNA (DNA, duplex) CAATCGGATCGAATTCGATCCGATTG
Briefly: CD thermal melt. The conditions noted are these: 30 mM KCl; 10 mM Tris pH 6.6, 1% DMSO; 10 μM DNA, 40 μM compound.

In experiment [16] the test system is 5'-biotin-TEG KRAS (DNA, G4) AGGGCGGTGTGGGAAGAGGGAAGAGGGGGAGGCAG
The experiment in a line: SPR, Langmuir kinetic fit. As to conditions: 30 mM KCl; 10 mM Tris pH 6.6, 3% DMSO, 0.01% Tween-20.

The test system is the same in experiment [17]. Briefly: SPR. As to conditions: 30 mM KCl; 10 mM Tris pH 6.6, 3% DMSO, 0.01% Tween-20; no binding at 20 μM.

In the case of `CN[C@H](C(=O)O)C(C)C`, in [1] (internal control), the binding result is given as “no”.
Turning to `NCCOc1cc(C(=O)Nc2cc(OCCN)c3ccccc3n2)nc(C(=O)Nc2cc(OCCN)c3ccccc3n2)c1`, the ΔTm in experiment [2] came out at 31.6 ± 2.6 °C. Moreover, the binding result in experiment [3], in experiment [4], in [5], in [6], in [7] and in [8] was “yes” throughout. Also, the binding entry in experiment [9] and in [10] was “yes” in each case.
Turning to `CCCCC(CC)CNC(=N)NC(=N)NCCCCCCNC(=N)NC(=N)NCC(CC)CCCC` (stereo not shown), the ΔTm in experiment [2] worked out at 7.1 ± 0.6 °C. For the same compound, the binding result in experiment [11] (25 mM Tris-d11 pH 6.6, 10% DMSO-d6, 293 K, moderate, nonspecific) is “yes”. Also, the values for the KDapp in experiment [12] and in experiment [13] (50 nM DNA) were 12.1 ± 0.5 µM and 19.3 ± 11.0 µM, respectively.
Turning to `N=C(NCCCCCCNC(=N)NC(=N)Nc1ccc(Cl)cc1)NC(=N)Nc1ccc(Cl)cc1`, the binding entry in [14] was “yes”; in experiment [1], “yes”; in [15] it was “no”; in [11] (25 mM Tris-d11 pH 6.6, 10% D2O, 5% DMSO-d6, 293 K), “yes”. Moreover, the ΔTm in experiment [2] came out at 13.0 ± 0.7 °C. Further, the KD in experiment [16] came to 1.1 ± 0.5 µM; in experiment [13] (50 nM DNA), 0.0055 ± 0.0029 mM.
The compound `CC(C)NC(=N)NC(=N)Nc1ccc(Cl)cc1` came in with a KD in experiment [17] of over 20 µM. Moreover, the ΔTm in experiment [2] is under 1 °C. Besides, in experiment [11] (25 mM Tris-d11 pH 6.6, 10% DMSO-d6, 293 K, weak, nonspecific), the binding result is on record as “weak”. Besides, the KDapp in experiment [13] (only minimal fluorescence changes) was over 200 µM.

The record behind these values is article PMC5888870 (2018).
